For one compound, weed control effect results are on record in patent publication US12336540B2, “Method for controlling weeds” (SUMITOMO CHEMICAL COMPANY, LIMITED, priority 2019, dated 2025).

The subject of assay [1] is Palmer amaranth, waterhemp, kochia, common ragweed or marestail. The settings on record: spot foliar treatment of 20% of pot area, 560 g/ha dicamba acid equivalence, 150 L/ha; soybean, corn or cotton seeded immediately after, grown 21 days; compared with plot without crop and plot with uniform blanket treatment at 560 g/ha.
Experimental: (§1) The evaluation of the herbicidal efficacy is classified into 0 to 100, where the numeral “0” indicates no or little difference in the state of emergence or growth of weeds under test at the time of examination as compared with untreated weeds, and the numeral “100” indicates the complete death of weeds under test or the complete inhibition of emergence or growth of weeds under test.
A pot is filled with a soil, and then Palmer amaranth, waterhemp, kochia, common ragweed or marestail is seeded at a corner portion of the soil. […] Immediately thereafter, soybean (Genuity Roundup Ready 2 Xtend), corn (Genuity Roundup Ready 2), or cotton (Genuity Roundup Ready 2 Xtend) is seeded in a corner portion different from vegetation patches of weeds in the soil, and grown in the greenhouse for 21 days. This is defined as the invention plot.
Assay [2] shares this test system. The settings on record: weeds and soybean, corn or cotton grown 14 days, spot foliar treatment of 20% of pot area, 560 g/ha dicamba acid equivalence, 150 L/ha, then grown 21 days; compared with plot without crop and plot with uniform blanket treatment at 560 g/ha.
Experimental: as §1
A pot is filled with soil, and then Palmer amaranth, waterhemp, kochia, common ragweed, or marestail is seeded at a corner portion of the soil, and soybean (Genuity Roundup Ready 2 Xtend), corn (Genuity Roundup Ready 2), or cotton (Genuity Roundup Ready 2 Xtend) is seeded at another corner portion of the soil. […] Thereafter, the weeds and crops are grown in the greenhouse for 21 days. This is defined as the invention plot.

Each structure is given as a SMILES string. Where two headings read alike, the source gives them in different places.

`CN(CCCN)CCCN.COc1c(Cl)ccc(Cl)c1C(=O)O` [dicamba-biproamine]: the weed control effect entry in assay [1] and in assay [2] was “excellent weed control effect” in each case.
